The values that follow come from patent US20040029930A1, “Fungicidal mixtures based on amide compounds” (priority 2000, published 2004).

Structures are written as SMILES.

The subject of the experiment is Plasmopara viticola. Description: Activity against Peronospora in grape vines caused by Plasmopara viticola (protective spray, potted vines). It is filed as in vivo. The note with it: individual active ingredient, vine cultivar Müller-Thurgau. Here is the method: The active ingredients, separately or together, are formulated as a 10% emulsion in a mixture of 63% by weight of cyclohexanone and 27% by weight of emulsifier, and diluted with water to the desired concentration.
Evaluation is carried out by determining the infected leaf areas in percent. These percentages are converted into efficacies. The efficacy (W) is calculated as follows using Abbot's formula: […]
α corresponds to the fungal infection of the treated plants in % and β corresponds to the fungal infection of the untreated (control) plants in % An efficacy of 0 means that the infection level of the treated plants corresponds to that of the untreated control plants; an efficacy of 100 means that the treated plants were not infected.
The expected efficacies of the mixtures of the active ingredients were determined using Colby's formula [R. S. Colby, Weeds 15, 20-22 (1967)] and compared with the observed efficacies.
E=x+y−x·y/100 Colby's formula
E expected efficacy, expressed in % of the untreated control, when using the mixture of the active ingredients A and B at the concentrations a and b […]
X efficacy, expressed in % of the untreated control, when using active ingredient A at a concentration of a […]
Y efficacy, expressed in % of the untreated control, when using active ingredient B at a concentration of b […]
Activity Against Peronospora in Grape Vines Caused by Plasmmopara viticola […]
Leaves of potted vines of the cultivar “Müller-Thurgau” were sprayed to runoff point with an aqueous preparation of active ingredient which had been prepared using a stock solution comprising 10% of active ingredient, 85% of cyclohexanone and 5% of emulsifier. The next day, the undersides of the leaves were inoculated with an aqueous zoospore suspension of Plasmopara viticola. The vines were then placed firstly for 48 hours in a water-vapor-saturated chamber at 24° C. and then for 5 days in a greenhouse at 20-30° C. After this period of time, the plants were again placed in a moist chamber for 16 hours to accelerate the sporangiophore eruption. The extent to which the undersides of the leaves had been infected was then determined visually.

`Cc1ccc(-c2c(Cl)nc(C#N)n2S(=O)(=O)N(C)C)cc1` [cyazofamid]: the “Efficacy in % of the untreated control” value worked out at 73% (1 ppm in the spray liquor), 79% (4 ppm in the spray liquor), 84% (8 ppm in the spray liquor) and 89% (16 ppm in the spray liquor).
